Experimental data reported in paper PMC6591251, “Discovery of potent necroptosis inhibitors targeting RIPK1 kinase activity for the treatment of inflammatory disorder and cancer metastasis” (Cell Death & Disease, 2019).

How the values were obtained:
Assay in all cases: RBC kinase panel
Assay type in all cases: biochemical
Conditions in all cases: ATP 10 μM, Data1, Data2
[1] = target: T1, NEK11 (Homo sapiens, UniProt Q8NG66)
T1 construct: purchased Reaction Biology Corporation
Method in brief: (§1)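 1 μM inhibitor; n = 2; ATP 10 μM; broad panel of 369 human kinases.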

[2] = target: T2, EPHA3 (Homo sapiens, UniProt P29320)
T2 construct: purchased Reaction Biology Corporation
Method in brief: as §1

[3] = target: T3, TLK1 (Homo sapiens, UniProt Q9UKI8)
T3 construct: purchased Reaction Biology Corporation
Method in brief: as §1

[4] = target: T4, LYN B (Homo sapiens, UniProt P07948)
T4 construct: purchased Reaction Biology Corporation
Method in brief: as §1

[5] = target: T5, ERK1 (Homo sapiens, UniProt P27361)
T5 construct: purchased Reaction Biology Corporation
T5 sequence (P27361 whole entry): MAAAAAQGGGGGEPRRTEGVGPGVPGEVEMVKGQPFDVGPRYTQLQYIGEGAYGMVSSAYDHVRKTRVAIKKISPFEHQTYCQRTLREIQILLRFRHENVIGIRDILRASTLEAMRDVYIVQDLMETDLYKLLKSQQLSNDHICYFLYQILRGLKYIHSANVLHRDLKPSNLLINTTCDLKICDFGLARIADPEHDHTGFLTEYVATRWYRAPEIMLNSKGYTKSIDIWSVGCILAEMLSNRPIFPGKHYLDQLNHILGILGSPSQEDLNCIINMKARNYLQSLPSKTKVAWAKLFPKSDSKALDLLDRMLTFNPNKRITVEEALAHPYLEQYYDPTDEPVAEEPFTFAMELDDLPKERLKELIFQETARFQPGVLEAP
Method in brief: as §1

[6] = target: T6, ZAK/MLTK (Homo sapiens, UniProt Q9NYL2)
T6 construct: purchased Reaction Biology Corporation
Method in brief: as §1

[7] = target: T7, ABL2/ARG (Homo sapiens, UniProt P42684)
T7 construct: purchased Reaction Biology Corporation
T7 sequence (P42684 whole entry): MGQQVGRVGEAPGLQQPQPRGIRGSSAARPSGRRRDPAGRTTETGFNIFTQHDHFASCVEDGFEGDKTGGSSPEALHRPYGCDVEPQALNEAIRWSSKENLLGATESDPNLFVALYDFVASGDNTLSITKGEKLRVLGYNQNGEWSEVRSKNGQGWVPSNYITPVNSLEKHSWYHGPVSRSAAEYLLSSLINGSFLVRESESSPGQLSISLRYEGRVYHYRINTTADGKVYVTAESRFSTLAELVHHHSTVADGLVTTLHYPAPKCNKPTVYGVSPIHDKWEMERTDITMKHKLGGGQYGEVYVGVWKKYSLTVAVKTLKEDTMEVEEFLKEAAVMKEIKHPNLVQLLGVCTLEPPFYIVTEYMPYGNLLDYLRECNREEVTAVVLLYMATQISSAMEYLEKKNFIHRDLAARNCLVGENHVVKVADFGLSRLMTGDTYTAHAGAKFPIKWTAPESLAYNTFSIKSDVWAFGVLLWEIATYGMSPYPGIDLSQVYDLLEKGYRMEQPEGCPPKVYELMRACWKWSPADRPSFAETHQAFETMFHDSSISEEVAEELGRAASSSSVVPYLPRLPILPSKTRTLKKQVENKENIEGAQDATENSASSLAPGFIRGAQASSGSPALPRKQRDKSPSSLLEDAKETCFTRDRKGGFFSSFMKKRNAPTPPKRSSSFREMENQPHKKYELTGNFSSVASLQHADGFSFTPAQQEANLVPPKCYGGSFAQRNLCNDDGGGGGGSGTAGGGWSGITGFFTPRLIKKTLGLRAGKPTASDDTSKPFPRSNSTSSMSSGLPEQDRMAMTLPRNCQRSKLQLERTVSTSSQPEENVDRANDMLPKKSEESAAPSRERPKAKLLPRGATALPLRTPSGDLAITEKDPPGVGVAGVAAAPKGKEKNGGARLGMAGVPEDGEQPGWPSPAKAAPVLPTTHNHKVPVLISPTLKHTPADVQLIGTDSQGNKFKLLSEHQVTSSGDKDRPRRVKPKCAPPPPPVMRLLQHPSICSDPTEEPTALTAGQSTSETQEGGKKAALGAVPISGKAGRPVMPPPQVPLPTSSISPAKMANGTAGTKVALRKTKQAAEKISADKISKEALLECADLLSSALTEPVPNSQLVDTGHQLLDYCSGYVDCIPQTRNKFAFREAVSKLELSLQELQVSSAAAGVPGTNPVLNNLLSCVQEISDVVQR
Method in brief: as §1

[8] = target: T8, DDR2 (Homo sapiens, UniProt Q16832)
T8 construct: purchased Reaction Biology Corporation
Method in brief: as §1

[9] = target: T9, CK1a1L (Homo sapiens, UniProt Q8N752)
T9 construct: purchased Reaction Biology Corporation
Method in brief: as §1

[10] = target: T10, FMS (Homo sapiens, UniProt P07333)
T10 construct: purchased Reaction Biology Corporation
Method in brief: as §1

[11] = target: T11, WNK3 (Homo sapiens, UniProt Q9BYP7)
T11 construct: purchased Reaction Biology Corporation
Method in brief: as §1

[12] = target: T12, FLT1/VEGFR1 (Homo sapiens, UniProt P17948)
T12 construct: purchased Reaction Biology Corporation
Method in brief: as §1

[13] = target: T13, DMPK2 (Homo sapiens, UniProt Q6DT37)
T13 construct: purchased Reaction Biology Corporation
Method in brief: as §1

[14] = target: T14, PASK (Homo sapiens, UniProt Q96RG2)
T14 construct: purchased Reaction Biology Corporation
T14 sequence (Q96RG2 whole entry): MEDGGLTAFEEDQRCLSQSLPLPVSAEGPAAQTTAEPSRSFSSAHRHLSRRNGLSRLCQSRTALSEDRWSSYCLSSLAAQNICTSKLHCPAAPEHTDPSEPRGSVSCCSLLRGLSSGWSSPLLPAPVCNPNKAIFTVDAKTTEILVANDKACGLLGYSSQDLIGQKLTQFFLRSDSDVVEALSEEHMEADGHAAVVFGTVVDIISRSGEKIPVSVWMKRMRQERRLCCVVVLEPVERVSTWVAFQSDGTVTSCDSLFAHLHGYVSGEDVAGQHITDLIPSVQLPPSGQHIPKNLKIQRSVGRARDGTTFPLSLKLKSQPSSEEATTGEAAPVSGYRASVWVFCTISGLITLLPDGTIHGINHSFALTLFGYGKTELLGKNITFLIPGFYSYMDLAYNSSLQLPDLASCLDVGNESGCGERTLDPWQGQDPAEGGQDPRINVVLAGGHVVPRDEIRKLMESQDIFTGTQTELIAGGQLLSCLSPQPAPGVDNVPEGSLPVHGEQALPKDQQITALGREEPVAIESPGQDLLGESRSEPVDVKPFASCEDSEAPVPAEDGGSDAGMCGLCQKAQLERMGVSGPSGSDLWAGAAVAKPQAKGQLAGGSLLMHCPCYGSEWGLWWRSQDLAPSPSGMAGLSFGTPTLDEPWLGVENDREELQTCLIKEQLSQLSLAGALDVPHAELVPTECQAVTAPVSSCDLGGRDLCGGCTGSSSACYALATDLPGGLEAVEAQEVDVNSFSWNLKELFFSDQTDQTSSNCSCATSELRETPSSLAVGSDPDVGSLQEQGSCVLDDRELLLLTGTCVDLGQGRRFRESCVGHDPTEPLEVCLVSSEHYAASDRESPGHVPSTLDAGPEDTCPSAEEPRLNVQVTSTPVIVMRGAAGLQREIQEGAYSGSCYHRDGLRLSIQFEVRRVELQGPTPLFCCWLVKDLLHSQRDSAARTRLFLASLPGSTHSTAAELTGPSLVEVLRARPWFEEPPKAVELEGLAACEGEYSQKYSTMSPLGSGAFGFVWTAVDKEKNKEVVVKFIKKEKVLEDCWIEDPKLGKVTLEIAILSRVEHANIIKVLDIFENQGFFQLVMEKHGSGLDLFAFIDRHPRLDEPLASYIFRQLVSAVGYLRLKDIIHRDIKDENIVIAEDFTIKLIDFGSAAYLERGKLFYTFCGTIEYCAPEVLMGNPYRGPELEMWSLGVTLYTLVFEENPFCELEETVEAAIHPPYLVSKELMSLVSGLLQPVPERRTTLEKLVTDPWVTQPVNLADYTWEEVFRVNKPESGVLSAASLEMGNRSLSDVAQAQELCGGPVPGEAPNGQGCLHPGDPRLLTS
Method in brief: as §1

[15] = target: T15, SNARK/NUAK2 (Homo sapiens, UniProt Q9H093)
T15 construct: purchased Reaction Biology Corporation
Method in brief: as §1

[16] = target: T16, CAMK2a (Homo sapiens, UniProt Q9UQM7)
T16 construct: purchased Reaction Biology Corporation
Method in brief: as §1

[17] = target: T17, MEKK3 (Homo sapiens, UniProt Q99759)
T17 construct: purchased Reaction Biology Corporation
Method in brief: as §1

[18] = target: T18, KSR2 (Homo sapiens, UniProt Q6VAB6)
T18 construct: purchased Reaction Biology Corporation
Method in brief: as §1

[19] = target: T19, CDK6/cyclin D1 (Homo sapiens, UniProt Q00534)
T19 construct: purchased Reaction Biology Corporation
Method in brief: as §1

[20] = target: T20, LCK2/ICK (Homo sapiens, UniProt Q9UPZ9)
T20 construct: purchased Reaction Biology Corporation
T20 sequence (Q9UPZ9 whole entry): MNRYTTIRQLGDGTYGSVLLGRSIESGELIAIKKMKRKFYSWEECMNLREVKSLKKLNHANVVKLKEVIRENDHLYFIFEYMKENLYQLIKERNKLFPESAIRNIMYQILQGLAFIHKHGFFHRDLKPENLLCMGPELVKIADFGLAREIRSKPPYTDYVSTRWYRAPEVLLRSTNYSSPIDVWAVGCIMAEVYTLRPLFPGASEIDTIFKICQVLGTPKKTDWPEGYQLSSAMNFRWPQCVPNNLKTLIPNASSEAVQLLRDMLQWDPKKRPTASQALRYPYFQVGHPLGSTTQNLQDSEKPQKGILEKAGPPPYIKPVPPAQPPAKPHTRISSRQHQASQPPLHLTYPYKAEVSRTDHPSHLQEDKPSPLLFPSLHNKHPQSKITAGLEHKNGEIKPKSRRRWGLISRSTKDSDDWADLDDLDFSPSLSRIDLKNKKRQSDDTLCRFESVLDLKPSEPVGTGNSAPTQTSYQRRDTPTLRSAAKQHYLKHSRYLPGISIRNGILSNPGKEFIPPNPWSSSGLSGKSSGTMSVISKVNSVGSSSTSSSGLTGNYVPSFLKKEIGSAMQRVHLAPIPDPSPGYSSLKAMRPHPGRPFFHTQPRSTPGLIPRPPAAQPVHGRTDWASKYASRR
Method in brief: as §1

[21] = target: T21, FYN (Homo sapiens, UniProt P06241)
T21 construct: purchased Reaction Biology Corporation
Method in brief: as §1

[22] = target: T22, PBK/TOPK (Homo sapiens, UniProt Q96KB5)
T22 construct: purchased Reaction Biology Corporation
T22 sequence (Q96KB5 whole entry): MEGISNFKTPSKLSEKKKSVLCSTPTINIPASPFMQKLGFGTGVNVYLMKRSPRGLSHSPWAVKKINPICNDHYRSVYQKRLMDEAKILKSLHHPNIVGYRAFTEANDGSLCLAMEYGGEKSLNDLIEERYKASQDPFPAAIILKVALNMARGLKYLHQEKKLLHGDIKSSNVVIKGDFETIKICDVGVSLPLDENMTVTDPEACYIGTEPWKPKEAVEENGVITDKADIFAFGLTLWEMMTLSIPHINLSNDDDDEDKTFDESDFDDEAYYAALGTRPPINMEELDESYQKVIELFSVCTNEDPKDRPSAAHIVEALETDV
Method in brief: as §1

[23] = target: T23, BMPR2 (Homo sapiens, UniProt Q13873)
T23 construct: purchased Reaction Biology Corporation
Method in brief: as §1

[24] = target: T24, YSK4/MAP3K19 (Homo sapiens, UniProt Q56UN5)
T24 construct: purchased Reaction Biology Corporation
Method in brief: as §1

[25] = target: T25, NEK8 (Homo sapiens, UniProt Q86SG6)
T25 construct: purchased Reaction Biology Corporation
Method in brief: as §1

[26] = target: T26, PKAcg (Homo sapiens, UniProt P22612)
T26 construct: purchased Reaction Biology Corporation
T26 sequence (P22612 whole entry): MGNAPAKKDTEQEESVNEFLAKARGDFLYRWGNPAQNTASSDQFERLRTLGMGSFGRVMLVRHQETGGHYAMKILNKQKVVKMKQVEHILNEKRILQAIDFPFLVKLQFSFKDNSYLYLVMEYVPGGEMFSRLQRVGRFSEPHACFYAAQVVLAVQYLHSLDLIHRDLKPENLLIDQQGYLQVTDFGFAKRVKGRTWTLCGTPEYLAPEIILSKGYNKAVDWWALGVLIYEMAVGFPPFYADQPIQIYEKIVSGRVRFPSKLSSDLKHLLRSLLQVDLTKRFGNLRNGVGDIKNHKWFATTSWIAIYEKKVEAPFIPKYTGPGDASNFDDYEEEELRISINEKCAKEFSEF
Method in brief: as §1

[27] = target: T27, ERBB2/HER2 (Homo sapiens, UniProt P04626)
T27 construct: purchased Reaction Biology Corporation
Method in brief: as §1

[28] = target: T28, HCK (Homo sapiens, UniProt P08631)
T28 construct: purchased Reaction Biology Corporation
Method in brief: as §1

[29] = target: T29, MLK1/MAP3K9 (Homo sapiens, UniProt P80192)
T29 construct: purchased Reaction Biology Corporation
Method in brief: as §1

[30] = target: T30, RSK2 (Homo sapiens, UniProt P51812)
T30 construct: purchased Reaction Biology Corporation
T30 sequence (P51812 whole entry): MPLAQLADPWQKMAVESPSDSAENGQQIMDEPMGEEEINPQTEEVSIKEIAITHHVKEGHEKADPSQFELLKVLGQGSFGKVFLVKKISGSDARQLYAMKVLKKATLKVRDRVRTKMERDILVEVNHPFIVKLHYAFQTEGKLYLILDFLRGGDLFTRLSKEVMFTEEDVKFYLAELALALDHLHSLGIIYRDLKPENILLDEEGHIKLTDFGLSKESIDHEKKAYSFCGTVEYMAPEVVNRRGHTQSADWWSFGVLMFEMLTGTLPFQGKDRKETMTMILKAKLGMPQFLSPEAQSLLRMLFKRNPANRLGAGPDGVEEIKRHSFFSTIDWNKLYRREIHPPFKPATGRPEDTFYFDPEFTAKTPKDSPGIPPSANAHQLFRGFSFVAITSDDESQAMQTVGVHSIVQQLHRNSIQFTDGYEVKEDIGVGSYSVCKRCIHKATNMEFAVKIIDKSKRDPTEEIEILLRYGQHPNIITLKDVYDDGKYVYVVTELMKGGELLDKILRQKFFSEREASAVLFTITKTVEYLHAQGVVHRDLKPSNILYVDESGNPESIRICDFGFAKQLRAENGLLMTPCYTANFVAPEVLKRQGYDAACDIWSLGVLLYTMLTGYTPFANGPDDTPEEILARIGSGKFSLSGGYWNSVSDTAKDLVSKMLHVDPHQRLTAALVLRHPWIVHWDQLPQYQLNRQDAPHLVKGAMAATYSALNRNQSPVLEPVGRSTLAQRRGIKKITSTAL
Method in brief: as §1

[31] = target: T31, EGFR (Homo sapiens, UniProt P00533)
T31 construct: purchased Reaction Biology Corporation
Method in brief: as §1

[32] = target: T32, PIM2 (Homo sapiens, UniProt Q9P1W9)
T32 construct: purchased Reaction Biology Corporation
Method in brief: as §1

[33] = target: T33, CDK6/cyclin D3 (Homo sapiens, UniProt Q00534)
T33 construct: purchased Reaction Biology Corporation
Method in brief: as §1

## CC(=O)Nc1nc2ccc(-c3cnc(C)c(NC(=O)OC4CCCCC4)c3)cc2s1 [PK68, cyclohexyl (5-(2-acetamidobenzo[d]thiazol-6-yl)-2-methylpyridin-3-yl)carbamate]
[1]; 1 μM
  Activity%: 81.13%
[1]
  activity at 1 µM: 85.4%
[2]; 1 μM
  Activity%: 98.26%
[2]
  activity at 1 µM: 102%
[3]; 1 μM
  Activity%: 97.39%
[3]
  activity at 1 µM: 99.2%
[4]; 1 μM
  Activity%: 97.70%
[4]
  activity at 1 µM: 98%
[5]; 1 μM
  Activity%: 87.90%
[5]
  activity at 1 µM: 91.6%
[6]; 1 μM
  Activity%: 66.51%
[6]
  activity at 1 µM: 68.6%
[7]; 1 μM
  Activity%: 91.15%
[7]
  activity at 1 µM: 91.9%
[8]; 1 μM
  Activity%: 103.50%
[8]
  activity at 1 µM: 105%
[9]; 1 μM
  Activity%: 103.24%
[9]
  activity at 1 µM: 106%
[10]; 1 μM
  Activity%: 71.06%
[10]
  activity at 1 µM: 71.1%
[11]; 1 μM
  Activity%: 106.32%
[11]
  activity at 1 µM: 107%
[12]; 1 μM
  Activity%: 100.00%
[12]
  activity at 1 µM: 100%
[13]; 1 μM
  Activity%: 96.42%
[13]
  activity at 1 µM: 98.3%
[14]; 1 μM
  Activity%: 91.47%
[14]
  activity at 1 µM: 93%
[15]; 1 μM
  Activity%: 97.10%
[15]
  activity at 1 µM: 98.7%
[16]; 1 μM
  Activity%: 99.17%
[16]
  activity at 1 µM: 100%
[17]; 1 μM
  Activity%: 111.45%
[17]
  activity at 1 µM: 115%
[18]; 1 μM
  Activity%: 99.64%
[18]
  activity at 1 µM: 100%
[19]; 1 μM
  Activity%: 93.73%
[19]
  activity at 1 µM: 93.8%
[20]; 1 μM
  Activity%: 100.77%
[20]
  activity at 1 µM: 101%
[21]; 1 μM
  Activity%: 102.88%
[21]
  activity at 1 µM: 104%
[22]; 1 μM
  Activity%: 97.84%
[22]
  activity at 1 µM: 98.4%
[23]; 1 μM
  Activity%: 95.12%
[23]
  activity at 1 µM: 95.5%
[24]; 1 μM
  Activity%: 94.66%
[24]
  activity at 1 µM: 95%
[25]; 1 μM
  Activity%: 79.27%
[25]
  activity at 1 µM: 79.9%
[26]; 1 μM
  Activity%: 94.66%
[26]
  activity at 1 µM: 95.6%
[27]; 1 μM
  Activity%: 97.32%
[27]
  activity at 1 µM: 99.1%
[28]; 1 μM
  Activity%: 100.14%
[28]
  activity at 1 µM: 102%
[29]; 1 μM
  Activity%: 99.64%
[29]
  activity at 1 µM: 99.7%
[30]; 1 μM
  Activity%: 90.87%
[30]
  activity at 1 µM: 92.3%
[31]; 1 μM
  Activity%: 99.30%
[31]
  activity at 1 µM: 99.7%
[32]; 1 μM
  Activity%: 111.50%
[32]
  activity at 1 µM: 114%
[33]; 1 μM
  Activity%: 81.98%
[33]
  activity at 1 µM: 82.6%
